How the values were obtained:
[1] = pH of grass silage after ensiling; assay type: physicochemical, ryegrass; conditions: for pH: PVC silos
Experimental: Second cut ryegrass was harvested at PLNC. The grass was determined to have an approximate dry matter of 35%. Inoculation: Individual strains were supplied as fresh grown overnight culture. Cultures were adjusted to a standard concentration of 5.0×10^7 CFU/mL and applied using a syringe at a rate of 2.2 mL/kg of forage. The application rate for all strains was 1.1×10^5 CFU/g forage. Propionic acid (88%) was applied at a rate of 4.4 mL/kg fresh forage. PVC Silos: PVC silos were filled at a packing density of 0.288 kg DM/silo (100 kg DM/m^3); approximately 0.82-0.95 kg/silo. Silos were air infused for 24 hours on days 28 and 42, and opened after 50-60 days of ensiling.

[2] = Aerobic stability of grass silage (method of Honig); parameters: species or system ryegrass
Experimental: Second cut ryegrass was harvested at PLNC. The grass was determined to have an approximate dry matter of 35%.
Inoculation: Individual strains were supplied as fresh grown overnight culture. Cultures were adjusted to a standard concentration of 5.0×10^7 CFU/mL and applied using a syringe at a rate of 2.2 mL/kg of forage. The application rate for all strains was 1.1×10^5 CFU/g forage. Propionic acid (88%) was applied at a rate of 4.4 mL/kg fresh forage.
PVC Silos: PVC silos were filled at a packing density of 0.288 kg DM/silo (100 kg DM/m^3); approximately 0.82-0.95 kg/silo. Silos were air infused for 24 hours on days 28 and 42, and opened after 50-60 days of ensiling.
Aerobic Stability: The method of Honig (Proc. Of the Eurobac. Conf., P. Lingvall and S. Lindgren (ed.) (12-16 Aug. 1986) Swed. Univ. of Agric. Sci. Grass and Forage Report No. 3-1990. Pp. 76-81. Uppsala, Sweden.) was used for measuring aerobic stability (see Table 1). ROT is defined as the time, in hours, for the silage to heat 1.7° C. after exposure to air. Cumm_DD is the integral value of the area between the time ROT is attained and the end of the experiment. Aerobic dry matter loss (% dry matter) was determined relating the increase in temperature and the time to energy losses occurring in the silage.

[3] = average across replicate studies A, B, C

Molecule CCC(=O)O [Propionic Acid, Propionic acid] has a pH ([1]; replicate study A) of 4.03, a pH ([1]; replicate study B) of 4.17 and a pH ([1]; replicate study C) of 4.18. The “pH Avg.” value [1, 3] was 4.13, the “Aerobic deterioration compared with control grass silages” value [2] was “significantly less aerobic deterioration than the control” and the “Improvement of aerobic stability over the control” value ([2]; LN5689 1.1×10^5 CFU/g forage, propionic acid (88%) 4.4 mL/kg) was 96 h. The “Aerobic Dry Matter Loss Avg.” value [2, 3] was 0.43 % dry matter, the “ROT Avg.” value [2, 3] was 127 h and the “Aerobic Dry Matter Loss” value ([2]; replicate study A) was 0.29 % dry matter. The “ROT (time for the silage to heat 1.7° C. after exposure to air)” value ([2]; replicate study A) was 137 h, the “Aerobic Dry Matter Loss” value ([2]; replicate study B) was 0 % dry matter and the “ROT (time for the silage to heat 1.7° C. after exposure to air)” value ([2]; replicate study B) was 160 h. For the same molecule, the “Aerobic Dry Matter Loss” value ([2]; replicate study C) was 1.01 % dry matter and the “ROT (time for the silage to heat 1.7° C. after exposure to air)” value ([2]; replicate study C) was 86 h.

From US20080138463A1, “Lactobacillus buchneri strain LN5689 and its use to improve aerobic stability of silage” (Pioneer Hi-Bred International, Inc., priority 2006, published 2008)
